These results are taken from ChEMBL document CHEMBL6103578, “Design and synthesis three novel series of derivatives using natural acetylcholinesterase inhibitor-RLMS as template and in vitro, in vivo and in silico activities verification” (Eur J Med Chem, 2025).

The structures appear in SMILES notation. Active and inactive are the calls of the source. No cut-off for these calls is given here.

Data set [1] relates to SH-SY5Y. As to the kind of experiment: Neuroprotective effect against H2O2-induced cell injury in human SH-SY5Y cells assessed as cell survival at 25 uM preincubated for 1 hr followed by H2O2 addition measured after 2 hrs by MTT assay (reference value: 57.76 %). The data set is classed as functional. As to conditions: time 3 hrs, read-out: Activity. (Formazan colour is commonly taken as a measure of viable cells.)

Data set [2] concerns the target T1, Acetylcholinesterase (Homo sapiens, UniProt P22303). As to the kind of experiment: Inhibition of AChE (unknown origin) using ATCI as substrate preincubated for 20 mins followed by substrate addition measured after 30 mins by DTNB assay.
The subject of data set [3] is SH-SY5Y. As to the kind of experiment: Neuroprotective effect against H2O2-induced cell injury in human SH-SY5Y cells assessed as cell survival at 25 to 100 uM preincubated for 1 hr followed by H2O2 addition measured after 2 hrs by MTT assay (reference value: 57.76 %). As to conditions: dose 25-100 µM, time 3 hrs. In kind it is functional.
In data set [4] the target is T1, Acetylcholinesterase. As to the kind of experiment: Binding affinity to AChE (unknown origin) assessed as dissociation constant by MST assay.
A short description of data set [5]: Toxicity in zebrafish assessed as change in heart rate at 1 to 100 uM measured 96 hrs post-fertilization. The arrangement: species or system Danio rerio. Conditions: in vivo, dose 1-100 µM.
Data set [6] is filed under the species Danio rerio. As to the kind of experiment: Anti-alzheimer activity in AlCl3-treated zebrafish assessed as increase in movement speed at 25 to 75 uM treated for 72 hrs with medium replacement containing compound daily by light/dark cycle behavioral test. Conditions: dose 25-75 µM. In kind it is functional, organism-based.
Data set [7] is filed under the species Danio rerio. As to the kind of experiment: Anti-alzheimer activity in AlCl3-treated zebrafish assessed as inhibition of apoptosis in brain treated for 72 hrs with medium replacement containing compound daily by AO staining based analysis. The data set is classed as functional, organism-based. Conditions: dose 25-75 µM.
A short description of data set [8]: Toxicity in zebrafish assessed as malformation in animal at 100 uM measured 96 hrs post-fertilization. Set-up: species or system Danio rerio. Conditions: in vivo.
The species named for data set [9] is Danio rerio. As to the kind of experiment: Anti-alzheimer activity in AlCl3-treated zebrafish assessed as increase in movement distance at 25 to 75 uM treated for 72 hrs with medium replacement containing compound daily by light/dark cycle behavioral test. Conditions: dose 25-75 µM. The data set is classed as functional, organism-based.
Data set [10] can be described thus: Toxicity in zebrafish assessed as decrease in survival rate at 100 uM measured 96 hrs post-fertilization. The arrangement: species or system Danio rerio. Conditions: in vivo.
The nature of data set [11]: Toxicity in zebrafish assessed as deformaties in animal at 100 uM measured 96 hrs post-fertilization. The arrangement: species or system Danio rerio. As to conditions: in vivo.
In data set [12] the target is T1, Acetylcholinesterase. As to the kind of experiment: Mixed competitive inhibition of AChE (unknown origin) at 2 to 8 uM by DTNB assay. As to conditions: dose 2-8 µM.
The target of data set [13] is T1, Acetylcholinesterase. As to the kind of experiment: Mixed competitive inhibition of AChE (unknown origin) at 2.5 to 15 uM by DTNB assay. Conditions: dose 2.5-15 µM.

T1 sequence (P22303 whole entry): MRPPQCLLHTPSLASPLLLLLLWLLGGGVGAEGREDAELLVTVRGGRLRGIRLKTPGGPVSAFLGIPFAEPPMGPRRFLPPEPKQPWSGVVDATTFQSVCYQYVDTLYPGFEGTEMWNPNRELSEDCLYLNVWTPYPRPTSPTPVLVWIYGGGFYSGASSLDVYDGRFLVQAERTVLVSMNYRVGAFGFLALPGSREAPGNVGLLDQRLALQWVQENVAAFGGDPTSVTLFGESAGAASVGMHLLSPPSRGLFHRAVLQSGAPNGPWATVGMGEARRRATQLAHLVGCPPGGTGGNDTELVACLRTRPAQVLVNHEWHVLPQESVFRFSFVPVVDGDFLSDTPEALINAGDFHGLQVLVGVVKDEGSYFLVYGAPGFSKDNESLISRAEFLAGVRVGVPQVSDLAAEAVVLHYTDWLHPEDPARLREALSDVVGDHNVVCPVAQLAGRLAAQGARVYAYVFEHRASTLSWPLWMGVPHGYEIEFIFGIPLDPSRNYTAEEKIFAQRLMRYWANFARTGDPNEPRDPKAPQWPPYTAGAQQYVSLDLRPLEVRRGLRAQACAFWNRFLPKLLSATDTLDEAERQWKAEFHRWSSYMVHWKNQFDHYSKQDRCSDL

Take `COc1ccc(C(=O)O[C@]2(C)[C@H](C)CC[C@]3(C(=O)O)CC[C@]4(C)C(=CC[C@@H]5[C@@]6(C)C[C@@H](O)[C@H](O)[C@@](C)(CO)[C@@H]6CC[C@]54C)[C@@H]32)cc1`: the viability at 25 µM in data set [1] came out at 72.5%. In addition, the 50% inhibitory concentration (IC50) in data set [2] was 63.5 µM. Also, the Activity in data set [3] is listed as more than 57.76%.

`C[C@@H]1CC[C@]2(C(=O)NCc3ccccc3Cl)CC[C@]3(C)C(=CC[C@@H]4[C@@]5(C)C[C@@H](O)[C@H](O)[C@@](C)(CO)[C@@H]5CC[C@]43C)[C@@H]2[C@]1(C)O`: in data set [4], the Kd is 5.37 µM. In addition, the Activity result in data set [5] is “Non-toxic”; in [7] it was “Dose-dependent-effect”; in data set [8], “Toxic”; in data set [3], more than 57.76%; in [10], “Toxic”; in data set [11], “Toxic”. In addition, the outcome in data set [6] and in data set [9] was Active. Moreover, the viability at 25 µM in data set [1] amounted to 80%. In [2], this compound registered a 50% inhibitory concentration (IC50) of 3.7 µM. Moreover, in data set [12], the inhibition result is “Active”.

As for `C[C@@H]1CC[C@]2(C(=O)NCc3ccccc3)CC[C@]3(C)C(=CC[C@@H]4[C@@]5(C)C[C@@H](O)[C@H](O)[C@@](C)(CO)[C@@H]5CC[C@]43C)[C@@H]2[C@]1(C)O`, in data set [1], the viability at 25 µM was determined as 72.5%. In data set [2], this compound returned a half-inhibitory concentration (IC50) of 65.1 µM. Also, in [3], the Activity is more than 57.76%.

For the compound `C[C@@H]1CC[C@]2(C(=O)O)CC[C@]3(C)C(=CC[C@@H]4[C@@]5(C)C[C@@H](O)[C@H](O)[C@@](C)(CO)[C@@H]5CC[C@]43C)[C@@H]2[C@]1(C)O`, the viability at 25 µM in data set [1] amounted to 72.8%. Also, in [2], the IC50 came out at 23.2 µM. Further, the Activity in data set [3] is more than 57.76%.

As to `C[C@@H]1CC[C@]2(C(=O)O)CC[C@]3(C)C(=CC[C@@H]4[C@@]5(C)C[C@@H](OC(=O)c6ccc(Cl)cc6)[C@H](OC(=O)c6ccc(Cl)cc6)[C@@](C)(CO)[C@@H]5CC[C@]43C)[C@@H]2[C@]1(C)O`, the viability at 25 µM in data set [1] was found to be 72.5%. The compound also displayed a 50% inhibitory concentration (IC50) in [2] of 21.2 µM. In addition, the Activity in data set [3] was more than 57.76%.

Consider `Cc1c(C)c2c(c(C)c1O)CCC(C)(C(=O)O)O2` (stereo unspecified) [TROLOX], for which the viability at 25 µM in data set [1] came out at 72.6%. Also, the Activity in [3] is given as more than 57.76%.

For the compound `C[C@@H]1CC[C@]2(C(=O)NCCc3c[nH]c4ccccc34)CC[C@]3(C)C(=CC[C@@H]4[C@@]5(C)C[C@@H](O)[C@H](O)[C@@](C)(CO)[C@@H]5CC[C@]43C)[C@@H]2[C@]1(C)O`, the viability at 25 µM in [1] came to 72.5%. For the same compound, the concentration for half-maximal inhibition (IC50) in data set [2] was found to be 51.3 µM. In addition, the Activity in data set [3] was more than 57.76%.

Regarding `C[C@@H]1CC[C@]2(C(=O)NCc3cccc(Br)c3)CC[C@]3(C)C(=CC[C@@H]4[C@@]5(C)C[C@@H](O)[C@H](O)[C@@](C)(CO)[C@@H]5CC[C@]43C)[C@@H]2[C@]1(C)O`, the viability at 25 µM in data set [1] was 72.5%. Also, half-maximal inhibition in [2] (IC50) required 78 µM. In data set [3], the Activity is recorded as more than 57.76%.

Turning to `C[C@@H]1CC[C@]2(C(=O)O)CC[C@]3(C)C(=CC[C@@H]4[C@@]5(C)C[C@@H](OC(=O)CCc6ccccc6)[C@H](OC(=O)CCc6ccccc6)[C@@](C)(CO)[C@@H]5CC[C@]43C)[C@@H]2[C@]1(C)O`, the viability at 25 µM in data set [1] was found to be 72.5%. Moreover, in [13], the inhibition result is “Active”. The IC50 in [2] is 5.84 µM. The Activity in data set [3] is listed as more than 57.76%.

A word on the IC50: it is the concentration needed to halve the response being measured. A high value points to a need for much substance. One may read the Kd as the constant that tells how readily two partners part at equilibrium.
